Source: patent publication US10080366B2, “Agent for increasing sugar content in fruit” (RIKEN, priority 2012, dated 2018)
Where two headings read alike, the source gives them in different places.

Tested on: fruit of grape in a farm field
Method: To the fruit of grape in a farm field before harvest, potassium hydrogen carbonate diluted with water to a concentration of 10 g/L (Table 17) or 20 g/L (Table 18) was applied three times in total at intervals of 7 days. The grape was harvested 21 days after the first application, and the masses of amino acids contained in each of the fruit of grape treated with potassium hydrogen carbonate and untreated fruit of grape were measured. In addition, the degree of increase in the concentration of each amino acid in the grape treated with potassium hydrogen carbonate in comparison with the concentration of the amino acid in the untreated grape was determined as a ratio of “the concentration of the amino acid in the grape treated with potassium hydrogen carbonate/the concentration of the amino acid in the untreated grape.” Moreover, the sugar contents in the grape treated with potassium hydrogen carbonate and the untreated grape were also measured, and the ratio (the sugar content in the grape treated with potassium hydrogen carbonate/the sugar content in the untreated grape) was determined.
Arg: arginine, GluNH2: glutamine, Orn: ornithine, Ala: alanine, NH3: ammonia, Cit: citrulline, AspNH2: asparagine, a-ABA: α-amino-n-butyric acid, Glu: glutamic acid, Asp: aspartic acid, Thr: threonine, Ser: serine, Lys: lysine, His: histidine, Gly: glycine, Phe: phenylalanine, Sar: sarcosine, Val: valine, Cys: cysteine, b-AiBA: β-aminoisobutyric acid, PEA: phosphoethanolamine, a-AAA: α-aminoadipic acid, EOHNH2: ethanolamine, b-Ala: β-alanine, Leu: leucine, g-ABA: […], Ile: isoleucine, Met: methionine, Urea: urea, Trp: tryptophan, Tyr: tyrosine, and Cysthi: cystathionine.

## O=C([O-])O.[K+] [Potassium hydrogen carbonate, potassium hydrogen carbonate]
10 g/L x3
  Ala, Ratio treated/untreated: 5.229
  Ala, Treated Mass: 601.952 ng
  Arg, Ratio treated/untreated: 10.658
  Asp, Ratio treated/untreated: 2.694
  Asp, Treated Mass: 89.293 ng
  AspNH2, Ratio treated/untreated: 3.987
  AspNH2, Treated Mass: 14.746 ng
  Cit, Ratio treated/untreated: 4.673
  Cit, Treated Mass: 11.464 ng
  Cys, Ratio treated/untreated: 1.154
  Cys, Treated Mass: 117.021 ng
  Cysthi, Ratio treated/untreated: 0.457
  Cysthi, Treated Mass: 1.016 ng
  EOHNH2, Ratio treated/untreated: 1.02
  EOHNH2, Treated Mass: 53.297 ng
  Glu, Ratio treated/untreated: 2.915
  Glu, Treated Mass: 1091.265 ng
  GluNH2, Ratio treated/untreated: 7.046
  GluNH2, Treated Mass: 347.152 ng
  Gly, Ratio treated/untreated: 1.553
  Gly, Treated Mass: 25.939 ng
  His, Ratio treated/untreated: 1.615
  His, Treated Mass: 96.252 ng
  Ile, Ratio treated/untreated: 0.875
  Ile, Treated Mass: 72.435 ng
  Leu, Ratio treated/untreated: 1.012
  Leu, Treated Mass: 110.503 ng
  Lys, Ratio treated/untreated: 1.768
  Lys, Treated Mass: 18.865 ng
  Met, Ratio treated/untreated: 0.839
  Met, Treated Mass: 6.131 ng
  NH3, Ratio treated/untreated: 4.713
  NH3, Treated Mass: 438.689 ng
  Orn, Ratio treated/untreated: 6.692
  Orn, Treated Mass: 23.882 ng
  PEA, Ratio treated/untreated: 1.032
  PEA, Treated Mass: 87.942 ng
  Phe, Ratio treated/untreated: 1.527
  Phe, Treated Mass: 51.201 ng
  Sar, Ratio treated/untreated: 1.271
  Sar, Treated Mass: 62.178 ng
  Ser, Ratio treated/untreated: 2.585
  Ser, Treated Mass: 360.511 ng
  Sugar content, Ratio treated/untreated: 1.06
  Sugar content, Treated: 22.6%
  Thr, Ratio treated/untreated: 2.615
  Thr, Treated Mass: 342.259 ng
  Total, Ratio treated/untreated: 2.203
  Total, Treated Mass: 1082.09 ng
  Trp, Ratio treated/untreated: 0.641
  Trp, Treated Mass: 4.840 ng
  Tyr, Ratio treated/untreated: 0.59
  Tyr, Treated Mass: 17.739 ng
  Urea, Ratio treated/untreated: 0.757
  Urea, Treated Mass: 105.062 ng
  Val, Ratio treated/untreated: 1.256
  Val, Treated Mass: 191.700 ng
  a-AAA, Ratio treated/untreated: 1.031
  a-AAA, Treated Mass: 3.261 ng
  a-ABA, Ratio treated/untreated: 3.246
  a-ABA, Treated Mass: 9.038 ng
  b-AiBA, Ratio treated/untreated: 1.129
  b-AiBA, Treated Mass: 9.663 ng
  b-Ala, Ratio treated/untreated: 1.019
  b-Ala, Treated Mass: 197.064 ng
  g-ABA, Ratio treated/untreated: 0.891
  g-ABA, Treated Mass: 637.915 ng
10 g/L x3, harvest 21 days after first application
  Arg, Treated Mass: 1383.991 ng
20 g/L x3
  1Mehis, Ratio treated/untreated: 1.167
  1Mehis, Treated Mass: 1.184 ng
  Ala, Ratio treated/untreated: 6.161
  Ala, Treated Mass: 709.236 ng
  Arg, Ratio treated/untreated: 15.532
  Asp, Ratio treated/untreated: 2.614
  Asp, Treated Mass: 86.648 ng
  AspNH2, Ratio treated/untreated: 7.214
  AspNH2, Treated Mass: 26.684 ng
  Cit, Ratio treated/untreated: 12.285
  Cit, Treated Mass: 30.134 ng
  Cys, Ratio treated/untreated: 1.41
  Cys, Treated Mass: 142.979 ng
  Cysthi, Ratio treated/untreated: 0.3
  Cysthi, Treated Mass: 0.667 ng
  EOHNH2, Ratio treated/untreated: 1.164
  EOHNH2, Treated Mass: 76.497 ng
  Glu, Ratio treated/untreated: 1.85
  Glu, Treated Mass: 693.282 ng
  GluNH2, Ratio treated/untreated: 11.395
  GluNH2, Treated Mass: 561.408 ng
  Gly, Ratio treated/untreated: 1.847
  Gly, Treated Mass: 34.546 ng
  His, Ratio treated/untreated: 2.312
  His, Treated Mass: 137.818 ng
  Ile, Ratio treated/untreated: 1.149
  Ile, Treated Mass: 95.120 ng
  Leu, Ratio treated/untreated: 1.387
  Leu, Treated Mass: 151.405 ng
  Lys, Ratio treated/untreated: 2.452
  Lys, Treated Mass: 26.170 ng
  Met, Ratio treated/untreated: 1.325
  Met, Treated Mass: 9.698 ng
  NH3, Ratio treated/untreated: 4.845
  NH3, Treated Mass: 450.976 ng
  Orn, Ratio treated/untreated: 11.668
  Orn, Treated Mass: 41.643 ng
  PEA, Ratio treated/untreated: 1.644
  PEA, Treated Mass: 140.112 ng
  Phe, Ratio treated/untreated: 1.961
  Phe, Treated Mass: 65.750 ng
  Sar, Ratio treated/untreated: 1.5191
  Sar, Treated Mass: 74.309 ng
  Ser, Ratio treated/untreated: 3.553
  Ser, Treated Mass: 495.547 ng
  Sugar content, Ratio treated/untreated: 1.24
  Sugar content, Treated: 25.9%
  Thr, Ratio treated/untreated: 3.174
  Thr, Treated Mass: 415.421 ng
  Total, Ratio treated/untreated: 2.525
  Total, Treated Mass: 1239.923 ng
  Trp, Ratio treated/untreated: 0.973
  Trp, Treated Mass: 7.348 ng
  Tyr, Ratio treated/untreated: 0.994
  Tyr, Treated Mass: 29.898 ng
  Val, Ratio treated/untreated: 1.587
  Val, Treated Mass: 242.163 ng
  a-AAA, Ratio treated/untreated: 1.408
  a-AAA, Treated Mass: 4.352 ng
  a-ABA, Ratio treated/untreated: 3.555
  a-ABA, Treated Mass: 9.898 ng
  b-AiBA, Ratio treated/untreated: 1.12
  b-AiBA, Treated Mass: 9.588 ng
  b-Ala, Ratio treated/untreated: 1.202
  b-Ala, Treated Mass: 232.373 ng
  g-ABA, Ratio treated/untreated: 1.811
  g-ABA, Treated Mass: 1298.441 ng
20 g/L x3, harvest 21 days after first application
  Arg, Treated Mass: 2018.4554 ng
